Consider six compounds from ChEMBL document CHEMBL5465560, “Selectivity Literature for EUbOPEN Chemogenomic Library” (2024).

In experiment [1] the target is Serine/threonine-protein kinase N1 (Homo sapiens, UniProt Q16512). Nature of the experiment: Selectivity interaction (Kinase panel (KiNativ target engagement assay in Jurkat cells)) EUB0001635a PKN1. The experiment is classed as cell-based. To be noted: Selectivity number of off-targets 0.0, Selectivity number of targets 233.0, Source Knowledge https://www.sciencedirect.com/science/article/pii/S2451945619300674?via%3Dihub, at 1 µM.
Chain of Serine/threonine-protein kinase N1 (Q16512 2-942 limits assumed): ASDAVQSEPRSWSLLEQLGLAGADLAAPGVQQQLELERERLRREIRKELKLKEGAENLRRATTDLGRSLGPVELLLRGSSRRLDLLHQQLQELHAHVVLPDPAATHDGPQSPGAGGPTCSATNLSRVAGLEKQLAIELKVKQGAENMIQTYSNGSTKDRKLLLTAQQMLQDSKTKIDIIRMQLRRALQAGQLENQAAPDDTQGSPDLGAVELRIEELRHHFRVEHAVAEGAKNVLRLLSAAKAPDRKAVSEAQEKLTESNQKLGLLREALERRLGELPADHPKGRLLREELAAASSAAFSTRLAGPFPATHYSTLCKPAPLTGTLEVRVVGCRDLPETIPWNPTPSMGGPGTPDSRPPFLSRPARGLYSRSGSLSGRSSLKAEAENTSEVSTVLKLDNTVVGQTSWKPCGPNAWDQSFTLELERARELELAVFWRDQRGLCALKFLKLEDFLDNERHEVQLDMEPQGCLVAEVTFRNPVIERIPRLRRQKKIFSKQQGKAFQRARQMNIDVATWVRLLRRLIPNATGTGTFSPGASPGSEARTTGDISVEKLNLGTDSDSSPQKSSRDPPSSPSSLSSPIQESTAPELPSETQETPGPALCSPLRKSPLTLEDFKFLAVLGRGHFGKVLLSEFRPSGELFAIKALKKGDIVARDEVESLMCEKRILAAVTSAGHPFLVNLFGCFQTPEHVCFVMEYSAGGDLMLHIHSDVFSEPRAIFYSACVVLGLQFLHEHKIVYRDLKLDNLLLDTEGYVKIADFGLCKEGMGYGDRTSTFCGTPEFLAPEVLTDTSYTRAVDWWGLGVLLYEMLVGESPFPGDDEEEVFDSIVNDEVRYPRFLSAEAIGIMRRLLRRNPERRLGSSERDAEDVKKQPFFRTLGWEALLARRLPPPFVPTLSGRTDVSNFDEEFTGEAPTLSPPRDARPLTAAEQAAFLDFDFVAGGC

For experiment [2], the target named is T1, Hormonally up-regulated neu tumor-associated kinase (Homo sapiens) (UniProt P57058).
T1 sequence (whole entry): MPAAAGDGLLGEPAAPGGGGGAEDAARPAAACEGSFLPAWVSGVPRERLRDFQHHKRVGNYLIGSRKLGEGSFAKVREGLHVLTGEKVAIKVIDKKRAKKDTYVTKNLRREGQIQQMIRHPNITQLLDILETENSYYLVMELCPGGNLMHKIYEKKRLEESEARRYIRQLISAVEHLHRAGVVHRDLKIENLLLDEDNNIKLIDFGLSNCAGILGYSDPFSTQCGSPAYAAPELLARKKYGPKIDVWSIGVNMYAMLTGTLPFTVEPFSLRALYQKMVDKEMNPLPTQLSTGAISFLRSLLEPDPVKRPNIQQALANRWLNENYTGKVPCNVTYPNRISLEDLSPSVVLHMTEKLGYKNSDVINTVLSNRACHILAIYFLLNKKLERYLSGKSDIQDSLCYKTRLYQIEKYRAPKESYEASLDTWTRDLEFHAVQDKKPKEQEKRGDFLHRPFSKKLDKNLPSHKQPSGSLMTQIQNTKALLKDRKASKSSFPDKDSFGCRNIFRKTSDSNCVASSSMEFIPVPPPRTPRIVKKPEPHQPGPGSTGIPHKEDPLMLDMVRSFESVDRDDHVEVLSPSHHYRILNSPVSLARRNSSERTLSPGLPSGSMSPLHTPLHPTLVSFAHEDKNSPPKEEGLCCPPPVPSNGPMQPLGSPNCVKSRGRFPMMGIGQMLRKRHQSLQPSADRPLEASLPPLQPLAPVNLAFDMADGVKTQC
Kind of experiment: Selectivity interaction (KinomeScan (DiscoverX)) EUB0001079a HUNK. The settings on record: at 1 µM.

Experiment [3] deals with Wee1-like protein kinase 2 (Homo sapiens) (UniProt P0C1S8). Nature of the experiment: Selectivity interaction (KinomeScan (DiscoverX)) EUB0001619a WEE2. To be noted: at 1 µM.
Chain of Wee1-like protein kinase 2 (Homo sapiens) (P0C1S8 whole entry, looked up): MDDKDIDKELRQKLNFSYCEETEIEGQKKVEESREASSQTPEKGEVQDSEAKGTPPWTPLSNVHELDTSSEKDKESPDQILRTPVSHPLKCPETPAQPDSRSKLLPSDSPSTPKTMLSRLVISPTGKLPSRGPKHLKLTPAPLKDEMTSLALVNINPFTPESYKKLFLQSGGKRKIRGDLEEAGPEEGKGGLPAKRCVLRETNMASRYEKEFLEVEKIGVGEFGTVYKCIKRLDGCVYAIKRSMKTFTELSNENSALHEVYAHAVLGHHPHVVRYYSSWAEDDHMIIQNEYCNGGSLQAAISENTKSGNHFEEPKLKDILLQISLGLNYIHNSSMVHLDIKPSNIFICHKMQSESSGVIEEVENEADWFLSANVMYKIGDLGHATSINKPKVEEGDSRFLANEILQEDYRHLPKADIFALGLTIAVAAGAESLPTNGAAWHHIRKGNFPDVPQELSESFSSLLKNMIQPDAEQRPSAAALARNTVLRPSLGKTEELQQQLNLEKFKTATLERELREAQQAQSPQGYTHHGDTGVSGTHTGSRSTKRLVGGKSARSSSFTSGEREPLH
The target of experiment [4] is Hepatocyte growth factor-like protein (Homo sapiens) (UniProt P26927). The settings on record: at 10 µM.
The target in experiment [5] is T2, Non-receptor tyrosine-protein kinase TNK1 (Homo sapiens) (UniProt Q13470).
T2 sequence (whole entry): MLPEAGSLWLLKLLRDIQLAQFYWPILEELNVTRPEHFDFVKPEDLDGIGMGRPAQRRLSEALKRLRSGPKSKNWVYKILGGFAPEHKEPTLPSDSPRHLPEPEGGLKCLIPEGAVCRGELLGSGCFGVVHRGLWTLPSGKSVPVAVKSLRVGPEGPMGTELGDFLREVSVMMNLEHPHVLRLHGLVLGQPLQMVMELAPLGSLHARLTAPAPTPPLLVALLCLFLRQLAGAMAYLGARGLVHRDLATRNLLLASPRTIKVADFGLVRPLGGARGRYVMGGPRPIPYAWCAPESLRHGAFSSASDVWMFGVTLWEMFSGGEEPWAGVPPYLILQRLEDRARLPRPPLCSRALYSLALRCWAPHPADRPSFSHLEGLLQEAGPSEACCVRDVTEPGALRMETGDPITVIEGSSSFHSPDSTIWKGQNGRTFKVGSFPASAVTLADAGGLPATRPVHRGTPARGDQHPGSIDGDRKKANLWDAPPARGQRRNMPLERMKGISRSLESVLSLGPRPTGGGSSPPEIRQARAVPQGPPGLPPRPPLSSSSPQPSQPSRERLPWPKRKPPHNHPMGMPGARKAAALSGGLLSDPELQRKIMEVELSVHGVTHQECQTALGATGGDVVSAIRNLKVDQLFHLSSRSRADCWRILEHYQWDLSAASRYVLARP
To be noted: at 10 µM.

Experiment [6] concerns the target T3, NUAK family SNF1-like kinase 2 (Homo sapiens) (UniProt Q9H093).
T3 sequence (whole entry): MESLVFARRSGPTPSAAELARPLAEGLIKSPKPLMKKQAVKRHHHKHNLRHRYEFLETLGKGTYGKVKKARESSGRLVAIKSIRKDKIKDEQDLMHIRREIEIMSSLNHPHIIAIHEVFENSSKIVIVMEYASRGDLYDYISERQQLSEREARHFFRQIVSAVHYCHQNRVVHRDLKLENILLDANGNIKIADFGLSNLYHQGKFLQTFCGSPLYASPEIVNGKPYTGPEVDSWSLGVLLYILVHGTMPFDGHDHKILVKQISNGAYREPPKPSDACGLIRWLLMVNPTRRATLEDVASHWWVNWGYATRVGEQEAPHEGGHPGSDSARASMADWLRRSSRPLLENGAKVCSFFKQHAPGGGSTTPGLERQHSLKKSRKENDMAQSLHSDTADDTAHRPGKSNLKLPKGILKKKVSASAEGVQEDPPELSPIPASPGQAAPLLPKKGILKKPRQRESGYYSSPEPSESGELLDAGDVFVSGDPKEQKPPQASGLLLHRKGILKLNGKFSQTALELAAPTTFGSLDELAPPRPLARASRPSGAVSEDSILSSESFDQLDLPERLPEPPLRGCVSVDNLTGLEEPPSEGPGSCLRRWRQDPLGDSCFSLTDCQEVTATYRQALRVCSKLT
Nature of the experiment: Selectivity interaction (KinomeScan (DiscoverX)) EUB0001049a NUAK2. The settings on record: at 1 µM.

Experiment [7] deals with T2, Non-receptor tyrosine-protein kinase TNK1 (Homo sapiens). Nature of the experiment: Selectivity interaction (KinomeScan (DiscoverX)) EUB0000045b TNK1.

For the compound `C=CC(=O)Nc1ccc(C(=O)Nc2[nH]nc3c2CN(C(=O)N[C@H](CN(C)C)c2ccccc2)C3(C)C)cc1`, the % of engagement in experiment [1] was -7.3%.
With `Nc1cnc(N2CCc3cc(S(=O)(=O)Nc4c(F)cc(Cl)cc4F)cc(N4CCCC4=O)c32)nc1` [TP-020n], the % of control in experiment [2] is 99%.
`N#Cc1cccc(-c2c[nH]c3ncnc(N4CCOCC4)c23)c1` showed a % of control in experiment [3] of 96%.
As to `CCN(CC)CCCCNc1ncc2cc(-c3cc(OC)cc(OC)c3)c(NC(=O)NC(C)(C)C)nc2n1`, the % of control in experiment [4] and in experiment [5] was 100% each time.
On to `COc1cc(Nc2nc(C)cc(-c3cnn4nc(OC)ccc34)n2)cc(C(F)(F)F)c1`, for which, in experiment [6], the % of control was found to be 93%.
As for `C=CC(=O)Nc1cc(-n2c(=O)ccc3cnc4ccc(-c5ccc(NS(C)(=O)=O)cc5)cc4c32)ccc1C`, the % of control in experiment [7] (at 1 µM) and in experiment [7] (at 10 µM) was 100% in each case.
